The NIST ThermoML archive (doi:10.1021/acs.jced.7b00788)
Numbers after ± are expanded uncertainties.

Experiment: xn = mol fraction of the nth substance listed
Conditions: 100 kPa, Liquid; for viscosity: Concentric cylinders viscometry; for mass density: Vibrating tube method

CCOP(=O)([O-])OCC.CCn1cc[n+](C)c1 [1-ethyl-3-methylimidazolium diethyl phosphate] + O
Conditions	mass density, 293.15 K [kg/m3]	mass density, 303.15 K [kg/m3]	mass density, 313.15 K [kg/m3]	mass density, 323.15 K [kg/m3]	viscosity, 293.15 K [mPa·s]	viscosity, 303.15 K [mPa·s]	viscosity, 313.15 K [mPa·s]	viscosity, 323.15 K [mPa·s]	viscosity, 333.15 K [mPa·s]
x2 = 0.012	1151.2 ± 1.2	1144.2 ± 1.2	1137.4 ± 1.2	1130.7 ± 1.2	540 ± 30	274 ± 15	154 ± 8	94 ± 4.4	61.2 ± 2.8
x2 = 0.061	1151.7 ± 1.1	1144.7 ± 1.1	1137.9 ± 1.1	1131.2 ± 1.1	513 ± 28	262 ± 14	148 ± 7	90.2 ± 4.2	58.8 ± 2.6
x2 = 0.123	1152.1 ± 1	1145.2 ± 1	1138.4 ± 1	1131.7 ± 1	487 ± 26	250 ± 14	141 ± 7	86.4 ± 4	56.2 ± 2.5
x2 = 0.183	1152.4 ± 1	1145.5 ± 0.9	1138.7 ± 0.9	1132 ± 0.9	462 ± 25	238 ± 13	135 ± 7	83.1 ± 3.8	54.3 ± 2.4
x2 = 0.259	1153 ± 0.9	1146.1 ± 0.9	1139.3 ± 0.9	1132.6 ± 0.8	422 ± 22	219 ± 12	125 ± 6	76.5 ± 3.5	49.3 ± 2.2
x2 = 0.502	1154.6 ± 0.7	1147.8 ± 0.7	1141.1 ± 0.7	1134.3 ± 0.7	202 ± 10	111 ± 6	65.8 ± 3.1	40.7 ± 1.8	27.6 ± 1.2
x2 = 0.765	1150.2 ± 0.6	1143.1 ± 0.6	1135.9 ± 0.6	1128.6 ± 0.6	51.1 ± 2.7	31.2 ± 1.5	20.3 ± 1	14 ± 0.6	10.1 ± 0.5
x2 = 0.88	1124 ± 1.7	1116.7 ± 1.4	1109.2 ± 1.4	1101.7 ± 1.3	12.5 ± 0.9	8.35 ± 0.44	5.91 ± 0.3	4.38 ± 0.22	3.36 ± 0.16
